According to PMC9672091, “Ameliorative effect of vanillin on scopolamine-induced dementia-like cognitive impairment in a mouse model” (Frontiers in Neuroscience, 2022):

Target: T1, acetylcholinesterase enzyme (from electric eel) (Electrophorus electricus, UniProt O42275)
T1 construct: gene ache; commercial enzyme from electric eel (Sigma-Aldrich), native source; no construct or oligomer details printed
Test: modified Ellman assay, absorbance at […] nm
Format: biochemical

T1 sequence (O42275 24-633): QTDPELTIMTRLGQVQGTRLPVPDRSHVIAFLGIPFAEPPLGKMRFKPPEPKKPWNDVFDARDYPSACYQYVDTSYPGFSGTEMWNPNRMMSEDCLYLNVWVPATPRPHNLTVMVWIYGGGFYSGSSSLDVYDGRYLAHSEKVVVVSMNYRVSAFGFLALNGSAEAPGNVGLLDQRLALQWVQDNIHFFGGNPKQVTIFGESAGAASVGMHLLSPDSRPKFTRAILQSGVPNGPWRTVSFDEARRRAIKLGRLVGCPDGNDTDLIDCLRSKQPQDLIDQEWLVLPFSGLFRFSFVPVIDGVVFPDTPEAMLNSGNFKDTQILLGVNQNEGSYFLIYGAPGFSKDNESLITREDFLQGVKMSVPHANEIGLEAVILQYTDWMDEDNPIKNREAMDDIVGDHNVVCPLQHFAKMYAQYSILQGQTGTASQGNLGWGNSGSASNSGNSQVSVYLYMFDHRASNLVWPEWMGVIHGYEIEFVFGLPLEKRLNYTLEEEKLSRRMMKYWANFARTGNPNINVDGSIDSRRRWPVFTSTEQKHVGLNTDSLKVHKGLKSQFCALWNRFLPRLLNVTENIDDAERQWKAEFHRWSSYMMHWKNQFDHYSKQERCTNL

## COc1cc(C=O)ccc1O [Vanillin]
  IC50: 33 µM
